Data set [1] relates to Fadu (human pharyngeal squamous cell carcinoma). In words: In vitro inhibitory effect against human tumor cells (MTT). Type of data set: cell-based. Particulars: 72 h, 3 days. The protocol: (§1) Cells were cultured with 5% CO2 at 37°C and saturated humidity until they reached a logarithmic growth phase (usually adherent cells were nearly fully confluent). After removing adherent cells by trypsin/EDTA digestion, the cells were collected for subsequent experiments.
(§2) The cells were inoculated into a 96-well cell culture plate (hereinafter referred to as the 96-well plate) based on the cell count shown in Table 2, cultured overnight to achieve cell adherence, and then, after different concentrations of the test compound were added, further cultured for a total of 3 days. Finally, the total cell protein in the assay wells was assayed by SRB, or the cell viability was assessed by MTT:
(§3) 2.2 Assaying cell viability by MTT: the modification is based on the method in the literature (J. Carmichael, W. DeGraff, A. Gazdar et al., Evaluation of a tetrazolium-based semiautomated colorimetric assay: assessment of chemosensitivity testing. Cancer Research. 1987, 47: 936-942). Specific method: For well-adherent cells: the medium was pipetted out, 100 µL of a basal medium containing 0.5 mg/mL MTT (medium free of fetal bovine serum (FBS) and other additives) was added to each well, and culture was continued for additional 3 h. The MTT-containing basal medium was pipetted out, and 100 µL of DMSO was added to each well to dissolve formazan, followed by assay at a wavelength of 490 nm.
(§4) For poorly-adherent cells: MTT solution was directly added to a concentration of 0.5 mg/mL, culture was continued for additional 3 h, and an equal volume of triple solvent was added to the system to dissolve formazan, followed by assay at a wavelength of 570 nm.
(§5) 2.3: 1-2 mg of β-glucuronidase was weighed, and dissolved in PBS to prepare 2 mg/mL stock solution. Prior to use, the stock solution was diluted with a complete medium to prepare 12.5 µg/mL enzyme working solution. For assay wells requiring the enzyme, 80 µL of the enzyme working solution was added, with the β-glucuronidase at a concentration of 1 µg/well; and for assay wells not requiring the enzyme, 80 µL of the complete medium was added.
(§6) 1-3 mg of the test compound was weighed, and dissolved in DMSO to prepare 20 mM stock solution. The stock solution was diluted in a 3-fold gradient with DMSO, then diluted 100-fold with RPMI1640 basal medium to obtain 10× working solutions, with a total of 8 concentrations. 20 µL of the 10× working solutions were add to the assay wells, with the final volume of each well of 200 µL, and with the DMSO at a concentration of 0.1%.
(§7) 2.4 Calculation of inhibitory activity of compound: the experiment includes a compound test group, a compound-free positive solvent control group (PC), and a negative solvent control group (NC) without cells and the compound. Inhibition rate = [1−(testvalue−NCmean)/(PCmean−NCmean)] × 100% [formula]
(§8) The mean and SD of the inhibition rate were obtained from replicate assay wells. A curve was plotted with the compound concentrations distributed in a logarithmic form as the abscissa and with the mean inhibition rates as the ordinate, and was fitted with a 4-parameter logistic equation. The compound concentration corresponding to 50% inhibition rate on the curve is the IC50 value. Table 2: Culture medium formulation and cell inoculation concentration for human tumor cell lines

Data set [2] has as its system MDA-MB-468 (human triple-negative breast cancer). In words: In vitro inhibitory effect against human tumor cells (SRB). Type of data set: cell-based. Particulars: MDA-MB-468, 72 h, MDA-MB-468, SRB, 3 days. The protocol:
as §1, §2
(§9) 2.1 Assaying total cell protein by SRB: the modification is based on the method in the literature (V. Vichai and K. Kirtikara. Sulforhodamine B colorimetric assay for cytotoxicity screening. Nature Protocols. 2006, 1: 1112-1116). Specific method: the culture medium was pipetted out from the wells, the cells were fixed with 10% trichloroacetic acid for more than 1 h, and trichloroacetic acid was removed; the cells were washed with H2O, and stained with 0.4% SRB for 15-30 min; after excess SRB was removed, the cells were washed with 1% acetic acid; 100 µl of 10 mM tris(trihydroxymethylaminomethane) was added to dissolve the protein-bound SRB, followed by assay at a wavelength of 570 nm.
as §5, §6, §7, §8

Data set [3] has as its system BxPC-3 (human pancreatic cancer in situ). Put plainly: In vitro inhibitory effect against human tumor cells (MTT or SRB). Type of data set: cell-based. Particulars: BXPC-3, 72 h, BxPC-3, test method printed MTT (head: SRB), 3 days. The protocol:
as §1, §2, §9, §3, §4, §5, §6, §7, §8

The subject of data set [4] is HCT116 (human colorectal cancer). Put plainly: In vitro inhibitory effect against human tumor cells (MTT). Particulars: HCT-116, 72 h, 3 days. Type of data set: cell-based. The protocol:
as §1, §2, §3, §4, §5, §6, §7, §8

Data set [5] relates to NCI-H1975 (human non-small cell lung cancer). Described as above. Type of data set: cell-based. Conditions: NCI-H1975, 72 h, 3 days. The protocol:
as §1, §2, §3, §4, §5, §6, §7, §8

For data set [6], the system named is SK-OV-3 (human ovarian cancer). Described as above. Type of data set: cell-based. Conditions: SK-OV-3, 72 h, SK-OV-3, MTT, 3 days. Here is the method:
as §1, §2, §3, §4, §5, §6, §7, §8

Data set [7] relates to 22RV1 (human prostate cancer). In words: In vitro inhibitory effect against human tumor cells (SRB). Particulars: 22Rv1, 72 h, 22RV1, SRB, 3 days. Type of data set: cell-based. The protocol:
as §1, §2, §9, §5, §6, §7, §8

For data set [8], the system named is A375 (human malignant melanoma). The data set is described as above. Type of data set: cell-based. Conditions: A-375, 72 h, 3 days. Here is the method:
as §1, §2, §9, §5, §6, §7, §8

Data set [9] has as its system HepG2 (human liver cancer cell). Described as above. Type of data set: cell-based. Particulars: HepG2, 72 h, 3 days. The protocol: as §1, §2, §9, §5, §6, §7, §8
In data set [10] the test system is human ovarian cancer SK-OV-3. In words: Biological Example 5: in vivo xenograft model of human ovarian cancer SK-OV-3. The arrangement: species or system Balb/c-nu nude mice. Conditions: SK-OV-3 xenograft, nude mice. For orientation: Xenograft models place foreign cells or tissue in a host animal.
The test system of data set [11] is human non-small cell lung cancer NCI-H1975. In words: Biological Example 9: in vivo xenograft model of human non-small cell lung cancer NCI-H1975. On the set-up: species or system Balb/c-nu nude mice. Particulars: nude mice.
Setting [12] is: With addition of βGU (1 µg/well).

Marks after values point to notes of the source that are not given here.

On to `CC[C@H](C)[C@@H]([C@@H](CC(=O)N1CCC[C@H]1[C@H](OC)[C@@H](C)C(=O)N[C@H](C)[C@@H](O)c1ccccc1)OC)N(C)C(=O)[C@@H](NC(=O)[C@H](C(C)C)N(C)Cc1ccc(O[C@@H]2O[C@H](C(=O)O)[C@@H](O)[C@H](O)[C@H]2O)cc1OCc1cn(CCCCCC(=O)Nc2ccc(-c3ccc(/N=N/c4ccc5c(S(=O)(=O)O)cc(S(=O)(=O)O)c(N)c5c4O)c(C)c3)cc2C)nn1)C(C)C` [Example compound 3], for which the IC50 (in general, the concentration needed to halve the response being measured) in data set [1] (setting [12]) was found to be 7.8 nM; in data set [1] (βGU-free) it was 159 nM; in [2] (setting [12]) it was 0.77 nM; in [2] (βGU-free), 50 nM; in [3] (setting [12]), 9.7 nM; in data set [3] (βGU-free), 106 nM.
In the case of `CC[C@H](C)[C@@H]([C@@H](CC(=O)N1CCC[C@H]1[C@H](OC)[C@@H](C)C(=O)N[C@H](C)[C@@H](O)c1ccccc1)OC)N(C)C(=O)[C@@H](NC(=O)[C@H](C(C)C)[N+](C)(CC)Cc1ccc(O[C@@H]2O[C@H](C(=O)[O-])[C@@H](O)[C@H](O)[C@H]2O)cc1OCc1cn(CCOCCC(=O)Nc2ccc(-c3ccc(/N=N/c4ccc5c(S(=O)(=O)[O-])cc(S(=O)(=O)[O-])c(N)c5c4O)c(C)c3)cc2C)nn1)C(C)C.[Na+].[Na+]` (stereo partly drawn) [Example compound 8], the concentration for half-maximal inhibition (IC50) in data set [1] (setting [12]) amounted to 0.79 nM; in data set [1] (βGU-free), 19 nM; in data set [4] (setting [12]), 2.1 nM; in data set [4] (βGU-free) it was 51 nM; in data set [5] (setting [12]) it was 3.4 nM; in [5] (βGU-free) it was 72 nM. In addition, the half-maximal inhibitory concentration (IC50) turned out to be 2.6 nM in [6] (setting [12]); 61 nM in data set [6] (βGU-free); 3 nM in data set [7] (setting [12]); 63 nM in [7] (βGU-free); 2.4 nM in data set [8] (setting [12]); 43 nM in data set [8] (βGU-free). In addition, the IC50 in data set [9] (setting [12]) was 4 nM; in data set [9] (βGU-free) it was 86 nM; in data set [3] (setting [12]) it was 0.54 nM; in data set [3] (βGU-free), 21 nM. Moreover, the “Final body weight change (%)” value is on record as 4.6% in data set [10] (0.8 mg/kg i.v. qw×3) and 4% in data set [11] (0.8 mg/kg i.v. qw×3). Besides, the “Maximum body weight change (%)” value in data set [10] (0.8 mg/kg i.v. qw×3) is listed as 4.6, d21%; in data set [11] (0.8 mg/kg i.v. qw×3) it was 4.3, d17%. The “Relative volume RTV (x±S.D.)” value in [10] (0.8 mg/kg i.v. qw×3) came to 0.08±0.02; in [11] (0.8 mg/kg i.v. qw×3) it was 0.19±0.27. The “T/C (%)” value in data set [10] (0.8 mg/kg i.v. qw×3) is listed as 0.7%; in data set [11] (0.8 mg/kg i.v. qw×3) it was 2.5%. Also, the “Tumor inhibition rate (%)” value was found to be 99.7% in [10] (0.8 mg/kg i.v. qw×3) and 98.3% in data set [11] (0.8 mg/kg i.v. qw×3). Besides, the figures for the “Tumor weight (g, x±S.D.)” value in [10] (0.8 mg/kg i.v. qw×3) and in data set [11] (0.8 mg/kg i.v. qw×3) were 0.005 ± 0.003 g and 0.022±0.038* * g, respectively. Also, the Animal death entry in [10] (0.8 mg/kg i.v. qw×3, group G5, stated to be independent of drug administration (biting and fighting injury)) is “One animal in group G5 died on day 18”. In addition, the “Body weight (g, x±S.D.) End” value in data set [10] (0.8 mg/kg i.v. qw×3, End) amounted to 24.1 ± 1.6 g. For the same molecule, the “Body weight (g, x±S.D.) Start” value in data set [10] (0.8 mg/kg i.v. qw×3, Start) was found to be 22.9 ± 1.6 g; in data set [11] (0.8 mg/kg i.v. qw×3, Start), 25.3 ± 1.1 g. Moreover, the “Body weight (g, x±S.D.) End 24d” value in [11] (0.8 mg/kg i.v. qw×3, End 24d) was determined as 26.3 ± 1.5 g.

The record behind these values is patent EP4818187A1, “COMPOUND AND USE THEREOF” (Ganzhou Hemay Pharmaceutical, Co., Ltd, priority 2023, dated 2025).
